{
  "source": "paper PMC10269561",
  "about": "“Absence of Clinically Meaningful Drug-Drug Interactions with Rezafungin: Outcome of Investigations” (Microbiology Spectrum, 2023)",
  "key": {"[1]": {"biological_target": "human P-gp (Homo sapiens, UniProt P08183)", "sequence (P08183 whole entry)": "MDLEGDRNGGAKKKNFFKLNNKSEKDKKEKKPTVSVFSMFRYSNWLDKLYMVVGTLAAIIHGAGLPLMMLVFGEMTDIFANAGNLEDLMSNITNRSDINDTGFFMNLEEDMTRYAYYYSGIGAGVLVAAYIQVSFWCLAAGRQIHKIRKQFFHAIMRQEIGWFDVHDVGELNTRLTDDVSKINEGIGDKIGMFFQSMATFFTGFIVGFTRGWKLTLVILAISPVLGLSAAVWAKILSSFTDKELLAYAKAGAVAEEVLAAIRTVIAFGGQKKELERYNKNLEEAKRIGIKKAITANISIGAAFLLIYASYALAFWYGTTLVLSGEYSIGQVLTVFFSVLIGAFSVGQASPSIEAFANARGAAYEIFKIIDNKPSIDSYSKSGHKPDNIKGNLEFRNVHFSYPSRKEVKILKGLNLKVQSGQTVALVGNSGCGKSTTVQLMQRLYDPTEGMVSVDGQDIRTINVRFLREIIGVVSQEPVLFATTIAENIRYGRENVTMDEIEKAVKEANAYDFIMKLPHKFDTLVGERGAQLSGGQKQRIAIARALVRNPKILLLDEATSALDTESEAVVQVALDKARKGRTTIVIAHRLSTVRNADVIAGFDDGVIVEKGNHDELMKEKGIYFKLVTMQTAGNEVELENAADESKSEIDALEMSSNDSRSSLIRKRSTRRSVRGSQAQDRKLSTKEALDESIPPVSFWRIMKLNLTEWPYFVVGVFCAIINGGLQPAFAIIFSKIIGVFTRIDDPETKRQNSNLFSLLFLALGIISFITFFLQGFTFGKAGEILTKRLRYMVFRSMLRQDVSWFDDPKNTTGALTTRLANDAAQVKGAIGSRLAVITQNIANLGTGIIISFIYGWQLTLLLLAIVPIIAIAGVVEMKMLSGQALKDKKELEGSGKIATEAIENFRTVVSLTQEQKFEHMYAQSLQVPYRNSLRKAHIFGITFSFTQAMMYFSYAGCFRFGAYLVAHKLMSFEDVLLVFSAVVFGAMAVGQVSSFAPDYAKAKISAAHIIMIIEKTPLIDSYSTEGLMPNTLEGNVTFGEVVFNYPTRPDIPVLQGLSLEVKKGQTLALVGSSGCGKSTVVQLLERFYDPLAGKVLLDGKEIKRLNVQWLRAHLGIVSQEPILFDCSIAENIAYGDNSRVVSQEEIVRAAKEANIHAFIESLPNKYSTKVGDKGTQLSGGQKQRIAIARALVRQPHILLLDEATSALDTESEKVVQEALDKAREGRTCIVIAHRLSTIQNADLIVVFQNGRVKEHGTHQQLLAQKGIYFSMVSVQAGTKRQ", "test": "NC-152 transporter inhibition, P-gp", "type": "in vitro ADME", "conditions": "in vitro cell test system", "description": "(§1) Abbreviations: ABC = ATP binding cassette; BCRP = breast cancer resistance protein; BSEP = bile salt export pump; CYP = cytochrome P450; MATE =\n(§2) multidrug and toxic compound extrusion; MDCK = Madin-Darby canine kidney; MDR = multidrug resistance protein; mRNA = messenger ribonucleic acid;\n(§3) OAT = organic anion transporter; OATP = organic anion transporter protein; OCT – organic cation transporter; OCTN = organic cation transporter novel; P-gp =\n(§4) P-glycoprotein; SLC = solute carrier."}, "[2]": {"biological_target": "human OAT1 (Homo sapiens, UniProt Q4U2R8)", "sequence (Q4U2R8 whole entry, canonical isoform)": "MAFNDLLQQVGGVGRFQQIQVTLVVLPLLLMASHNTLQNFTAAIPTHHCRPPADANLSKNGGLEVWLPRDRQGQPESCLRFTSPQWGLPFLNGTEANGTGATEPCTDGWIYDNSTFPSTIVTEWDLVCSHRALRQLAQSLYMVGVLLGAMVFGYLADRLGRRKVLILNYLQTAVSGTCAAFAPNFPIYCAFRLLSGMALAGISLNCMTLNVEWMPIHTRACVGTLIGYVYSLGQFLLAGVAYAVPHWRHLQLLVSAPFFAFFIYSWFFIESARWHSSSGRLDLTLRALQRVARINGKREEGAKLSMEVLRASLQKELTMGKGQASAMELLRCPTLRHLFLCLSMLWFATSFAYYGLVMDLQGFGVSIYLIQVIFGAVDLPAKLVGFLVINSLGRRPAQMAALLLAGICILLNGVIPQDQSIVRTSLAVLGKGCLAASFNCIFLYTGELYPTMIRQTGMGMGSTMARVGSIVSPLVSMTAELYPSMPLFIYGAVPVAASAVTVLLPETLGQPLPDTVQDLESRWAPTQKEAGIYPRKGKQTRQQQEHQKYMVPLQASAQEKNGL", "test": "NC-152 transporter inhibition, OAT1", "type": "in vitro ADME", "conditions": "in vitro cell test system", "description": "(§5) Microbiology Spectrum Supplementary materials\n(§6) Table S 4Summary of initial in vitro assessments […]\n(§7) whether rezafungin can induce CYP isoforms 1A2, 2B6, or 3A4. mRNA expression) of CYP1A2 and CYP2B6, and, in the case of […]\n(§8) Abbreviations: ABC = ATP binding cassette; BCRP = breast cancer resistance protein; BSEP = bile salt export pump; CYP = cytochrome P450; MATE = multidrug and toxic compound extrusion; MDCK = Madin-Darby canine kidney; MDR = multidrug resistance protein; mRNA = messenger ribonucleic acid; OAT = organic anion transporter; OATP = organic anion transporter protein; OCT – organic cation transporter; OCTN = organic cation transporter novel; P-gp = P-glycoprotein; SLC = solute carrier."}, "[3]": {"biological_target": "human OAT3 (Homo sapiens, UniProt Q8TCC7)", "sequence (Q8TCC7 whole entry)": "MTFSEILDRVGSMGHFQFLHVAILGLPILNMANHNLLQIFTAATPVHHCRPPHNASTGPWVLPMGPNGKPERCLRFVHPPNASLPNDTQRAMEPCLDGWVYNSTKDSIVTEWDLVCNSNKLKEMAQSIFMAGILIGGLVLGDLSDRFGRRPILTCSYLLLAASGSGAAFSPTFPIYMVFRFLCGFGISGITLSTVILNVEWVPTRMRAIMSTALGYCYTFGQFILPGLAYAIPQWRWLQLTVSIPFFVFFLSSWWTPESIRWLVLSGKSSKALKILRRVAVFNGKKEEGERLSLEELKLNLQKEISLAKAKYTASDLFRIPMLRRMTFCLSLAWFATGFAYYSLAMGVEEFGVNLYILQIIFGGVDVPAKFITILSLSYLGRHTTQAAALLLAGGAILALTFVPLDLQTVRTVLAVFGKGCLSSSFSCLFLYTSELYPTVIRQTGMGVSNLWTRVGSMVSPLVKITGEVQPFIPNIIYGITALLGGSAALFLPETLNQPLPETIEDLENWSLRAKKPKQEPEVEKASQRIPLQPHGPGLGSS", "test": "NC-152 transporter inhibition, OAT3", "type": "in vitro ADME", "conditions": "in vitro cell test system", "description": "as §5, §6, §7, §8"}, "[4]": {"biological_target": "T1, OCT1 (Homo sapiens, UniProt O15245)", "T1 sequence (O15245 1-554)": "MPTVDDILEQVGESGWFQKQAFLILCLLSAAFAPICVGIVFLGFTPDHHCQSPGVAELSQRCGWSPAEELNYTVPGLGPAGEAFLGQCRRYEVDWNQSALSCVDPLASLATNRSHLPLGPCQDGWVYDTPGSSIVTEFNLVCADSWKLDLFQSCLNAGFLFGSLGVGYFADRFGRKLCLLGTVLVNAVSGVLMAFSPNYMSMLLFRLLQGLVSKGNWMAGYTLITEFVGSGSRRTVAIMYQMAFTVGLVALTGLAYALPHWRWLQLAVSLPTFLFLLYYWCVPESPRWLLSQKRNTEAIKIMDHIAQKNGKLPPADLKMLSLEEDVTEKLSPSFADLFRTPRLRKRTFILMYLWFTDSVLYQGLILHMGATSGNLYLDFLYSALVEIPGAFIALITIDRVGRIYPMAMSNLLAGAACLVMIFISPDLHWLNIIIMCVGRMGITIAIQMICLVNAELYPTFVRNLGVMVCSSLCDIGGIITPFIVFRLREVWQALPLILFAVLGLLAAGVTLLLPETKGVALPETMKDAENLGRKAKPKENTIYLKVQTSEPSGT", "test": "NC-152 transporter inhibition, OCT1", "type": "in vitro ADME", "description": "as §1, §2, §3, §4"}, "[5]": {"biological_target": "MDR1 (Homo sapiens, UniProt P08183)", "test": "NC-160 substrate interaction, MDR1", "type": "in vitro ADME", "conditions": "efflux (ABC) transporter", "description": "as §5, §6, §7, §8"}, "[6]": {"biological_target": "MRP2 (Homo sapiens, UniProt Q92887)", "test": "NC-160 substrate interaction, MRP2", "type": "in vitro ADME", "conditions": "efflux (ABC) transporter", "description": "as §5, §6, §7, §8"}, "[7]": {"biological_target": "T1, OCT1", "test": "NC-160 substrate interaction, OCT1", "type": "in vitro ADME", "conditions": "uptake SLC transporter", "description": "as §5, §6, §7, §8"}, "[8]": {"biological_target": "OCTN1 (Homo sapiens, UniProt Q9H015)", "sequence (Q9H015 whole entry)": "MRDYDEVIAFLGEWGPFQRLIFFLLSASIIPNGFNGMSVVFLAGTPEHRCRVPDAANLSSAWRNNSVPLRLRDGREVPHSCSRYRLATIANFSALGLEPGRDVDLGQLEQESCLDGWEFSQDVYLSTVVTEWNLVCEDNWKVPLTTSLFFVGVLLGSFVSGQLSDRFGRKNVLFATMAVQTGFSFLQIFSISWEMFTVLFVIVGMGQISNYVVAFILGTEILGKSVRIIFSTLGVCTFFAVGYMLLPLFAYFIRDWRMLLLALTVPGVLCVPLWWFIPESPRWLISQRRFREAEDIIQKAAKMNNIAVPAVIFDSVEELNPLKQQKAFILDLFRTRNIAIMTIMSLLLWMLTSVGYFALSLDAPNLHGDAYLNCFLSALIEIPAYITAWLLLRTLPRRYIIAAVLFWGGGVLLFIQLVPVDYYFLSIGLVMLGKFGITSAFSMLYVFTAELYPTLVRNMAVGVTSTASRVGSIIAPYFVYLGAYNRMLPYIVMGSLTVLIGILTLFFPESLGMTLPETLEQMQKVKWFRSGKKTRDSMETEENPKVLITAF", "test": "NC-160 substrate interaction, OCTN1", "type": "in vitro ADME", "conditions": "uptake SLC transporter", "description": "as §5, §6, §7, §8"}, "[9]": {"biological_target": "OCTN2 (Homo sapiens, UniProt O76082)", "test": "NC-160 substrate interaction, OCTN2", "type": "in vitro ADME", "conditions": "uptake SLC transporter", "description": "as §5, §6, §7, §8"}, "[10]": {"biological_target": "T2, CYP1A2 (Homo sapiens, UniProt P05177)", "T2 sequence (P05177 whole entry)": "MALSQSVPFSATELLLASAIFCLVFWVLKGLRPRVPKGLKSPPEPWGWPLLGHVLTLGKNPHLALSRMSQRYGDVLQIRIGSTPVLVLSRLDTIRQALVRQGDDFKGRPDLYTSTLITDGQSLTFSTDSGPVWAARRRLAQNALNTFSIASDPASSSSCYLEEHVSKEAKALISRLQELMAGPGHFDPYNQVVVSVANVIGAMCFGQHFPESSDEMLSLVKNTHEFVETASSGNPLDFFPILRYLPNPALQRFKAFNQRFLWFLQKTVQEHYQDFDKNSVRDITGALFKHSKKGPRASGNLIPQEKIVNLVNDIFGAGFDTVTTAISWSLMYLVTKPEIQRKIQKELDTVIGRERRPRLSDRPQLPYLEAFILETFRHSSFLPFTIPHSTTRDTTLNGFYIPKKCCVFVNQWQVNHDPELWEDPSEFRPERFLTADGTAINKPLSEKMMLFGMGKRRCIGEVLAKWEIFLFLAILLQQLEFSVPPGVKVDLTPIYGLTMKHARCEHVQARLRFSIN", "test": "NC-012 CYP450 inhibition screening, recombinant CYP1A2", "type": "in vitro ADME", "conditions": "10 μM, fluorogenic substrate, recombinant human CYP", "description": "as §5, §6, §7, §8"}, "[11]": {"biological_target": "T3, CYP2C8 (Homo sapiens, UniProt P10632)", "T3 sequence (P10632 1-490)": "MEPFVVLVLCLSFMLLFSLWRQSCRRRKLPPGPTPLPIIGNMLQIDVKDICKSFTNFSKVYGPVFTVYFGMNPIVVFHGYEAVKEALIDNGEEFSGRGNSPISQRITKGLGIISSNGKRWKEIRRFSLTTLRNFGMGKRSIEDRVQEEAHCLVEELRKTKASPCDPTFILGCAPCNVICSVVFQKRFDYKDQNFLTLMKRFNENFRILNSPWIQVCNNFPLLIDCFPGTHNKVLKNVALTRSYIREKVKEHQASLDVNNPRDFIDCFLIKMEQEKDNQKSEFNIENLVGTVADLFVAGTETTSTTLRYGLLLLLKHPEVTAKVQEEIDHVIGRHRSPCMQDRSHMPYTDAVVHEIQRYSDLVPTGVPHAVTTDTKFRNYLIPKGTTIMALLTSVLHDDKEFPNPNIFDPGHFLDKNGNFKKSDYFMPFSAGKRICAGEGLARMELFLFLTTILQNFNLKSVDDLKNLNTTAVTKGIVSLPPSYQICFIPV", "test": "NC-012 CYP450 inhibition screening, recombinant CYP2C8", "type": "in vitro ADME", "conditions": "fluorogenic substrate, recombinant human CYP", "description": "as §5, §6, §7, §8"}, "[12]": {"biological_target": "T4, CYP3A4 (Homo sapiens, UniProt P08684)", "T4 sequence (P08684 whole entry)": "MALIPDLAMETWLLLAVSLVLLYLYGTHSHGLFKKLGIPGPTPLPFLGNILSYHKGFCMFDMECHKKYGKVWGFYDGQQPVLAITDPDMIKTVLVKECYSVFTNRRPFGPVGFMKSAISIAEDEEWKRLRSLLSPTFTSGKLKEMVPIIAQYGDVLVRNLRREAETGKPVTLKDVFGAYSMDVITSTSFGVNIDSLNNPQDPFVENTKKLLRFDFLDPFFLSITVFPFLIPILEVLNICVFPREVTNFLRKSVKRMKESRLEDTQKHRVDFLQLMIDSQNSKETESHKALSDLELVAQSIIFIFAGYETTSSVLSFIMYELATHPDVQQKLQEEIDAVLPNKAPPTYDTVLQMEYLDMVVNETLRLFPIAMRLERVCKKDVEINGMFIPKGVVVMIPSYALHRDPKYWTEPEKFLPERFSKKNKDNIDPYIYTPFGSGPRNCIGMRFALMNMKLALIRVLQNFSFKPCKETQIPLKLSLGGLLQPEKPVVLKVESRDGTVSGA", "test": "NC-012 CYP450 inhibition screening, recombinant CYP3A4", "type": "in vitro ADME", "conditions": "benzyloxyresorufin substrate, recombinant human CYP", "description": "as §5, §6, §7, §8"}, "[13]": {"biological_target": "T2, CYP1A2", "conditions": "human liver microsomes; 0.1 to 25 μM; NC-153", "description": "as §5, §6, §7, §8"}, "[14]": {"biological_target": "CYP2B6 (Homo sapiens, UniProt P20813)", "sequence (P20813 whole entry)": "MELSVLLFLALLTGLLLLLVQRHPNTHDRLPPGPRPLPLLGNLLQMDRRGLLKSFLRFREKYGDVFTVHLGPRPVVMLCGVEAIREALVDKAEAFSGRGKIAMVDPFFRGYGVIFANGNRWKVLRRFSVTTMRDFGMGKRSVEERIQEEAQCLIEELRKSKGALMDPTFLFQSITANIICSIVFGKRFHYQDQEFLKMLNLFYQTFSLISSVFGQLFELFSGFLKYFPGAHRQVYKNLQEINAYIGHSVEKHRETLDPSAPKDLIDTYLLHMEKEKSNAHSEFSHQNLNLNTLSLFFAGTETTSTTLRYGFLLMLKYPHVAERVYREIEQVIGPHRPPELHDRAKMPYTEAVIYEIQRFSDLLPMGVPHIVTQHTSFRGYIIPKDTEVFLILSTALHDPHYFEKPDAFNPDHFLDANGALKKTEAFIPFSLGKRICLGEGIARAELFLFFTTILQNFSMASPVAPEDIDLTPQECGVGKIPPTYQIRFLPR", "conditions": "human liver microsomes; 0.1 to 25 μM; NC-153", "description": "as §5, §6, §7, §8"}, "[15]": {"biological_target": "T4, CYP3A4", "conditions": "human liver microsomes; midazolam and testosterone as substrates; 0.1 to 25 μM; NC-153", "description": "as §5, §6, §7, §8"}, "[16]": {"biological_target": "CYP2D6 (Homo sapiens, UniProt P10635)", "sequence (P10635 whole entry)": "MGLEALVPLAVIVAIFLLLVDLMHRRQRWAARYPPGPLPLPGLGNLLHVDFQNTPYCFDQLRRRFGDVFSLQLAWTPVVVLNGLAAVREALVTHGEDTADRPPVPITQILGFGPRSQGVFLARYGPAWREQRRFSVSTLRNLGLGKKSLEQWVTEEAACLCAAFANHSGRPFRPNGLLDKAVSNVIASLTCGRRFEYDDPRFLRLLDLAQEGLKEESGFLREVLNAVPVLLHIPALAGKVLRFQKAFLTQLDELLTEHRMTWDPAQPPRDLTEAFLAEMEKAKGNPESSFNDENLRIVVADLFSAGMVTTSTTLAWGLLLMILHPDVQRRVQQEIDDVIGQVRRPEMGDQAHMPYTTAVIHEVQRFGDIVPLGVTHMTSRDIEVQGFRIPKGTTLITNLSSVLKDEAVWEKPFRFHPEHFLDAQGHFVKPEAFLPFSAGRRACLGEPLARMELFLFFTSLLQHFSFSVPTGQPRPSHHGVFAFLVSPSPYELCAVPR", "test": "NC-153 time-dependent inhibition in human liver microsomes, CYP2D6", "type": "in vitro ADME", "conditions": "0.1 to 25 μM", "description": "as §5, §6, §7, §8"}, "[17]": {"test": "Precipitation in human liver microsome incubations (NC-153)", "type": "physicochemical", "description": "as §5, §6, §7, §8"}, "[18]": {"biological_target": "T3, CYP2C8", "test": "NC-013 CYP2C8 inhibition in human liver microsomes", "type": "in vitro ADME", "set-up": "in human liver microsomal preparations; from tissue; host or cells: human liver microsomes", "conditions": "read-out: IC50, CYP2C8 (weak inhibition)", "description": "as §1, §2, §3, §4"}},
  "note": "pIC50: −log10 of the molar value. Entries after “also recorded” stand apart in the source; their conditions may differ. Numbered stars: 1 amine (or outer) side, 2 acyl side, 3 side chain; on linkers, the order of the positions; unused ones are H or OH. Bridge positions count the residues as written; N and C are the ends. Square brackets hold non-standard residues; d marks the D form. Peptide text beside a SMILES is read from it. * marks the point of attachment. Orn(4R-OH,5R-OCH2CH2NMe3+) = C[N+](C)(C)CCO[C@@H](N[*:3])[C@H](O)C[C@H](N[*:1])C(=O)[*:2]; pTerphenylCO(4''-OnC5H11) = CCCCCOc1ccc(-c2ccc(-c3ccc(C(=O)*)cc3)cc2)cc1; hTyr(3S-OH,4S-OH) = N[C@H](C(=O)O)[C@H](O)[C@@H](O)c1ccc(O)cc1; Pro(3S-OH,4S-Me) = C[C@H]1CN[C@H](C(=O)O)[C@H]1O; Hyp = O=C(O)[C@@H]1C[C@@H](O)CN1",
  "data": [
    {"smiles": "CCCCCOc1ccc(-c2ccc(-c3ccc(C(=O)N[C@H]4C[C@@H](O)[C@@H](OCC[N+](C)(C)C)NC(=O)[C@@H]5[C@@H](O)[C@@H](C)CN5C(=O)[C@H]([C@@H](C)O)NC(=O)[C@H]([C@H](O)[C@@H](O)c5ccc(O)cc5)NC(=O)[C@@H]5C[C@@H](O)CN5C(=O)[C@H]([C@@H](C)O)NC4=O)cc3)cc2)cc1", "note": "[Rezafungin] ({pTerphenylCO(4''-OnC5H11)}-[Orn(4R-OH,5R-OCH2CH2NMe3+)]T[Hyp][hTyr(3S-OH,4S-OH)]T[Pro(3S-OH,4S-Me)]; lactam 1-C)", "values": [
      {"measurement": "inhibitor of probe substrate transport mediated via P-gp", "setting": "[1]", "value": "determined to be an inhibitor; also recorded: could not be ruled out"},
      {"measurement": "inhibitor of probe substrate transport mediated via OAT1", "setting": "[2]", "value": "determined to be an inhibitor"},
      {"measurement": "inhibitor of probe substrate transport mediated via OAT3", "setting": "[3]", "value": "not"},
      {"measurement": "inhibitor of probe substrate transport mediated via OCT1", "setting": "[4]; in vitro cell test system, NC-152", "value": "determined to be an inhibitor"},
      {"measurement": "pIC50", "setting": "[4]; initial in vitro studies, read-out: IC50, OCT-1 uptake transporter (moderate inhibition)", "value": "< 5.22"},
      {"measurement": "substrate of MDR1", "setting": "[5]", "value": "not a substrate"},
      {"measurement": "substrate of MRP2", "setting": "[6]", "value": "not a substrate"},
      {"measurement": "substrate of OCT1", "setting": "[7]", "value": "not a substrate"},
      {"measurement": "substrate of OCTN1", "setting": "[8]", "value": "not a substrate"},
      {"measurement": "substrate of OCTN2", "setting": "[9]", "value": "not a substrate"},
      {"measurement": "inhibition of CYP1A2", "setting": "[10]", "value": "Minimal inhibition"},
      {"measurement": "inhibition at 10 µM", "setting": "[11]", "value": 63, "unit": "%"},
      {"measurement": "inhibition at 10 µM", "setting": "[12]", "value": 81, "unit": "%"},
      {"measurement": "time-dependent inhibitor of CYP1A2", "setting": "[13]", "value": "not a time-dependent inhibitor"},
      {"measurement": "time-dependent inhibitor of CYP2B6", "setting": "[14]", "value": "not a time-dependent inhibitor"},
      {"measurement": "time-dependent inhibitor of CYP3A4", "setting": "[15]", "value": "not a time-dependent inhibitor"},
      {"measurement": "time-dependent inhibitor of CYP2D6", "setting": "[16]", "value": "not a time-dependent inhibitor"},
      {"measurement": "concentration at which precipitation occurred", "setting": "[17]", "value": "≥ 25", "unit": "µM"},
      {"measurement": "pIC50", "setting": "[18]", "value": "< 4.60"}
    ]}
  ]
}
